Data reported in patent US9462803B2, “Organ preservation and/or perfusion” (Philadelphia College of Osteopathic Medicine, priority 2005, dated 2016).
Entries after “also recorded” stand apart in the source; their conditions may differ. Where no end group is shown, it is not given here.

Experiments:
[1] = tested on: isolated perfused rat hearts; assay: Isolated perfused rat heart ischemia/reperfusion (I/R) cardiac function, with or without PMNs; settings: for cardioprotection: I/R+PMN
Procedure: Male Sprague Dawley rats (275-325 g, Ace Animals, Boyertown, Pa.) were anesthetized with 60 mg/kg pentobarbital sodium intraperitoneally (i.p.). Sodium heparin (1,000 U) was also administered i.p. The hearts were rapidly excised, the ascending aortas were cannulated, and retrograde perfusion of the heart was initiated with a modified Krebs buffer maintained at 37° C. at a constant pressure of 80 mmHg. The Krebs buffer had the following composition (in mmol/l): 17 dextrose, 120 NaCl, 25 NaHCO3, 2.5 CaCl2, 0.5 EDTA, 5.9 KCl, and 1.2 MgCl2. The perfusate was aerated with 95% O2 and 5% CO2 and equilibrated at a pH of 7.3-7.4. The two side arms in the perfusion line proximal to the heart inflow cannula allowed PMNs, plasma without PKC ε peptide inhibitor (control hearts) or plasma containing different concentrations of PKC ε peptide inhibitor (1 or 5 μM) to be directly infused into the coronary inflow line. Coronary flow was monitored by a flow meter (T106, Transonic System, Inc., Ithaca, N.Y.). LVDP and +dP/dtmax were monitored using a pressure transducer (SPR-524, Millar Instruments, Inc., Houston, Tex.), which was positioned in the left ventricular cavity. Hearts were immersed in a water-jacketed reservoir containing 160 mL of Krebs buffer maintained at 37° C. Coronary flow, LVDP and +dP/dtmax were recorded using a Powerlab Station acquisition system (ADInstruments, Grand Junction, Colo.) in conjunction with a computer.
LVDP, +dP/dtmax, and coronary flow were measured every 5 min for 15 min to equilibrate the hearts and obtain a baseline measurement. LVDP was defined as left ventricular end-systolic pressure minus left ventricular end-diastolic pressure. After 15 min, the flow of the Krebs buffer was reduced to zero for 20 min to induce global ischemia. At reperfusion, hearts were infused for 5 min with 200×10^6 PMN resuspended in 5 mL of Krebs buffer plus 5 mL of plasma at a rate of 1 mL/min. In some experiments, PKC ε peptide inhibitor (Genemed Synthesis, Inc., San Francisco, Calif.) was added to plasma at a final concentration of 1 or 5 μM. Sham I/R hearts were not subjected to ischemia and were not perfused with PMNs.
The following groups of isolated perfused rat hearts were used:
Group 1: Sham I/R hearts were not subjected to ischemia and were not perfused with PMNs, but were perfused with 5 mL of plasma (1 mL/min) at 35 minutes into perfusion (the same time point that I/R hearts would be given 5 mL of plasma, 15 minutes of baseline recordings plus 20 minutes ischemia). These hearts represented a control group to determine if the isolated rat heart can maintain LVDP and +dP/dtmax throughout the 80-minute protocol (n=6).
Group 2: Sham I/R+PKC ε peptide inhibitor (5 μM) hearts were not subjected to ischemia and not perfused with PMNs. These hearts were administered the PKC ε peptide inhibitor (5 μM, dissolved in plasma from a 5 mM stock in H2O) 35 minutes into perfusion. This group was employed to determine if the PKC ε peptide inhibitor causes a cardiotonic or cardiodepressant effect (n=6).
Group 3: I/R hearts were subjected to 20 min of ischemia and perfused with 5 mL of plasma (1 mL/min) during the first 5 min of reperfusion, but were not perfused with PMNs. These hearts represented a control group to determine if 20 min of ischemia followed by reperfusion stunned the heart, but LVDP and +dP/dtmax will recover to baseline values (initial) by the end of the 45-minute reperfusion period (n=7).
Group 4: I/R+PKC ε peptide inhibitor (5 μM, dissolved in plasma) hearts were subjected to 20 min of ischemia and not perfused with PMNs. These hearts were perfused with 5 mL of plasma+PKC ε peptide inhibitor during the first 5 min of reperfusion. This group was employed to determine if the PKC ε peptide inhibitor causes a cardiodepressant effect in the setting of I/R without PMNs (n=6). […]

rat aortic endothelium = assay: NO release from rat aortic endothelium; settings: basal 2.12±0.39
Procedure: FIG. 7 is a graph showing NO release from rat aortic endothelium in untreated (basal) segments compared to PKC ε peptide inhibitor treated segments (1, 5, and 10 μM).
FIG. 7 illustrates the NO release from rat aortic endothelium in untreated (basal) segments compared to PKC ε peptide inhibitor treated segments (1-10 μM). Acetylcholine (Ach) (10 μM) was used as a positive control. […] Although augmenting endothelial derived NO is usually associated with cardioprotection following I/R, it is speculated that the enzyme responsible for endothelial NO release (eNOS) may shift its product profile to the production of superoxide release when the substrate (L-arginine) or co-factor (BH4) is not readily available during early reperfusion.

[2] = I/R hearts without PMNs + inhibitor 5 μM
[3] = Sham I/R hearts (no ischemia, no PMNs) + inhibitor 5 μM, end of 80 min perfusion

With “PKC ε peptide inhibitor: Peptide inhibitor of PKC ε (Genemed Synthesis); preferred sequence EAVSLKPT (SEQ ID NO: 1), preferably myristoylated at the N-terminus (not fully specified (N-terminus); listed as Homo sapiens)” the “change in +dP/dtmax, initial vs final” value [1, 2] was “no significant difference”, the “change in LVDP, initial vs final” value [1, 2] was “no significant difference” and the “final LVEDP” value ([1]; I/R+PMN+inhibitor (5 μM), end of 45 min reperfusion, p<0.01 vs I/R+PMN) was 16±2 mmHg. The cardioprotection ([1]; 1 μM dose) was “not cardioprotective”, the cardioprotection ([1]; 5 μM dose) was “most cardioprotective” and the “change in +dP/dtmax, initial vs final” value [1, 3] was “did not show any significant change; also recorded: no significant difference”. For the same substance, the “change in LVDP, initial vs final” value [1, 3] was “did not show any significant change; also recorded: no significant difference”, the “direct effect on cardiac contractile function” value ([1]; Sham I/R hearts, 5 μM) was “no direct effect” and the NO release (rat aortic endothelium; 5 μM, p<0.05) was 0.66±0.28 pmoles/mg tissue. The NO release (rat aortic endothelium; 10 μM) was 0.26±0.42 pmoles/mg tissue.
